Several values for one entry are separate records, joined by “and”; a condition that tells them apart may be missing. Equal values may be shown once.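 All cell lines were grown in 96-well plates and treated with compound for 48 hours. Here, GI50 denotes the concentration required for 50% inhibition of growth.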 Activity calls are given as the source filed them. Rule as the data show it: active = GI50 up to about 1.1 µM and inactive = higher.
Experiments:
Assay in all cases: NCI-60 cell line screen, 48 h
[1] = test system: DMS-114
[2] = test system: DMS-273
[3] = test system: HOP-18
[4] = test system: KM-20L2
[5] = test system: LXFL 529
[6] = test system: M19-MEL
[7] = test system: SNB-78
[8] = test system: XF498
[9] = test system: RXF 631

Row | Compound | GI50 [1] | GI50 [2] | GI50 [3] | GI50 [4] | GI50 [5] | GI50 [6] | GI50 [7] | GI50 [8] | GI50 [9]
1 | COc1c(Cl)c(Cl)c(OC)c2c1C(=O)C=CC2=O | 16 µM (inactive) | 15.2 µM (inactive) | 44.5 µM (inactive) | 68.2 µM (inactive) | 15.8 µM (inactive) | 18 µM (inactive) | 13 µM (inactive) | 16.9 µM (inactive) | 
2 | O=C(/C=C/c1ccc(Cl)c(Cl)c1)c1ccc2ccccc2c1 | > 100 µM (inactive) | > 100 µM (inactive) | > 100 µM (inactive) | > 100 µM (inactive) | > 100 µM (inactive) | > 100 µM (inactive) | > 100 µM (inactive) |  | > 100 µM (inactive)
3 | CCCN(CCC)c1c([N+](=O)[O-])cc(C(=O)N(CCO)CCO)cc1[N+](=O)[O-] |  | > 100 µM (inactive) | > 100 µM (inactive) |  | > 100 µM (inactive) | > 100 µM (inactive) | > 100 µM (inactive) | 97.1 µM (inactive) | 
4 | CCOc1ccc(NC(=O)/C(=C/c2ccccc2)C(C)=O)cc1 | 11.9 µM (inactive) | 9.14 µM (inactive) | 12.9 µM (inactive) | 12.9 µM (inactive) |  | 10.8 µM (inactive) | 13.4 µM (inactive) | 14.4 µM (inactive) | 
5 | C[N+](C)(C)CC(=O)N/N=C(/C(=O)Nc1ccc(Br)cc1)C1C(=O)NC(=O)NC1=O | > 100 µM (inactive) | > 100 µM (inactive) | > 100 µM (inactive) | > 100 µM (inactive) | > 100 µM (inactive) | > 100 µM (inactive) | > 100 µM (inactive) |  | > 100 µM (inactive)
6 | O=C(Cc1ccc(F)cc1)NC1=C(Cl)C(=O)c2ccccc2C1=O | 0.514 µM (active) | 3.63 µM (inactive) |  | 17.7 µM (inactive) | 2.8 µM (inactive) | 3.74 µM (inactive) | 7.03 µM (inactive) | 1.76 µM (inactive) | 7.36 µM (inactive)
7 | COc1ccc2nc(NC(=O)C(=O)CC(=O)c3ccc([N+](=O)[O-])cc3)sc2c1 | 90.6 µM (inactive) | > 100 µM (inactive) |  | > 100 µM (inactive) | > 100 µM (inactive) | > 100 µM (inactive) |  | > 100 µM (inactive) | > 100 µM (inactive)
8 | Cc1cc(C)c([O-])c(-[n+]2c(-c3ccccc3)cc(-c3ccccc3)cc2-c2ccccc2)c1 | 3.05 µM (inactive) | 3.24 µM (inactive) | 5.31 µM (inactive) | 2.65 µM (inactive) | 2.35 µM (inactive) | 3.88 µM (inactive) | 6.24 µM (inactive) | 2.15 µM (inactive) | 10.2 µM (inactive)
9 | C[N+](C)(C)CCc1ccccc1 | > 100 µM (inactive) | > 100 µM (inactive) |  | > 100 µM (inactive) | > 100 µM (inactive) | > 100 µM (inactive) | > 100 µM (inactive) | > 100 µM (inactive) | > 100 µM (inactive)
10 | COc1cc2c(cc1C)[n+]([O-])c(C)c(C(=O)C/C(=N/NC(=O)C[N+](C)(C)C)C(=O)Nc1cccc(Cl)c1C)[n+]2[O-] | > 100 µM (inactive) | > 100 µM (inactive) | > 100 µM (inactive) | > 100 µM (inactive) | > 100 µM (inactive) |  | > 100 µM (inactive) | > 100 µM (inactive) | > 100 µM (inactive)
11 | Cc1cc(C)c(-n2c(-c3ccccc3)cs/c2=N\N=C2C=C(C(C)(C)C)C(=O)C(C(C)(C)C)=C2)c(C)c1 | 47.4 µM (inactive) | > 100 µM (inactive) | > 100 µM (inactive) | > 100 µM (inactive) | 75.5 µM (inactive) | > 100 µM (inactive) | > 100 µM (inactive) | > 100 µM (inactive) | 
12 | CN(C)/N=N/c1ccccc1 | 31.6 µM (inactive) | > 100 µM (inactive) | > 100 µM (inactive) | 42.3 µM (inactive) | > 100 µM (inactive) | 43.4 µM (inactive) |  | > 100 µM (inactive) | 
13 | O=C(CC(=O)n1nc(-c2ccccc2)c(/N=N/c2ccc([N+](=O)[O-])cc2)c1-c1ccccc1)Nc1ccc(Cl)cc1 | 5.92 µM (inactive) | 19.9 µM (inactive) | 26.4 µM (inactive) | 3.25 µM (inactive) | 8.73 µM (inactive) | 35.6 µM (inactive) | 88.5 µM (inactive) | 26.2 µM (inactive) | 55.6 µM (inactive)
14 | CC(C)C(=O)/C=C/c1ccc(Cl)c(Cl)c1 | 19.2 µM (inactive) |  | 11.4 µM (inactive) | 19.2 µM (inactive) | 18.7 µM (inactive) | 17.7 µM (inactive) | 34.8 µM (inactive) | 12.5 µM (inactive) | 
15 | O=C1[C@@H]2C3c4ccccc4C([C@@H]2C(=O)N1c1ccccc1)S3(=O)=O | 37.9 µM (inactive) | > 100 µM (inactive) | > 100 µM (inactive) | > 100 µM (inactive) | > 100 µM (inactive) | > 100 µM (inactive) | > 100 µM (inactive) | > 100 µM (inactive) | 26.8 µM (inactive)
16 | NNC(=O)CC(=O)Nc1ccccc1F | > 100 µM (inactive) | > 100 µM (inactive) | > 100 µM (inactive) | > 100 µM (inactive) | > 100 µM (inactive) | > 100 µM (inactive) | > 100 µM (inactive) |  | > 100 µM (inactive)
17 | C(=C\c1c2oc(-c3ccccc3)cc(-c3ccccc3)c-2c2ccccc12)/C=C1\c2ccccc2-c2c(-c3ccccc3)cc(-c3ccccc3)[o+]c21.[O-][Cl+3]([O-])([O-])[O-] | > 100 µM (inactive) | > 100 µM (inactive) |  | > 100 µM (inactive) | > 100 µM (inactive) | > 100 µM (inactive) | > 100 µM (inactive) | > 100 µM (inactive) | 
18 | CN(C)C(=S)SN(C)C(=O)Nc1ccccc1 | 2.4 µM (inactive) | 18.2 µM (inactive) |  | > 49.2 µM (inactive) | 0.391 µM (active) | 2.21 µM (inactive) | 39.9 µM (inactive) |  | > 51.9 µM (inactive)
19 | COc1cccc2c1C(=O)C=CC2=O | 4.92 µM (inactive) | 15 µM (inactive) | 10.4 µM (inactive) | 16.7 µM (inactive) | 2.33 µM (inactive) | 4.45 µM (inactive) | 4.54 µM (inactive) | 2.52 µM (inactive) | 
20 | COc1cccc2c1C1=CC(=O)CCC1C(C)(C)O2 (configuration not stated) | 27.8 µM (inactive) | > 100 µM (inactive) | > 100 µM (inactive) | > 100 µM (inactive) | > 100 µM (inactive) | > 100 µM (inactive) | > 100 µM (inactive) |  | > 100 µM (inactive)
21 | CCOC(=O)c1ccc(/N=C/c2ccc(N(CCC#N)S(=O)(=O)c3ccccc3)cc2C)cc1 | 36 µM (inactive) | 65.3 µM (inactive) |  | 16.4 µM (inactive) | 6.01 µM (inactive) | 36.6 µM (inactive) | 33.2 µM (inactive) | > 100 µM (inactive) | > 100 µM (inactive)
22 | CC(C)N1CC2CC(CN(C(=O)c3ccc(Cl)cc3)C2)C1 | > 100 µM (inactive) | > 100 µM (inactive) | > 100 µM (inactive) | > 100 µM (inactive) | > 100 µM (inactive) | > 100 µM (inactive) |  | > 100 µM (inactive) | > 100 µM (inactive)
23 | O=c1oc2ccccc2[n+]([O-])c1-c1ccccc1 | > 100 µM (inactive) | > 100 µM (inactive) | > 100 µM (inactive) | > 100 µM (inactive) | > 100 µM (inactive) | > 100 µM (inactive) | > 100 µM (inactive) | > 100 µM (inactive) | > 100 µM (inactive)
24 | CN(CCN1C(=O)c2cc([N+](=O)[O-])cc3cc([N+](=O)[O-])cc(c23)C1=O)CCN1C(=O)c2cc([N+](=O)[O-])cc3cc([N+](=O)[O-])cc(c23)C1=O | 0.605 µM (active) | 0.391 µM (active) | 10.6 µM (inactive) | 1.1 µM (active) | 0.211 µM (active) | 0.369 µM (active) | 0.255 µM (active) | 0.211 µM (active) | 
25 | Cc1cc(C)c(C(=O)C(C)C(c2ccccc2)c2ccc(Cl)cc2)c(C)c1 (configuration not stated) | > 100 µM (inactive) and 76.7 µM (inactive) |  | > 100 µM (inactive) |  | 63.5 µM (inactive) | 43.9 µM (inactive) and 33.3 µM (inactive) |  | 61.2 µM (inactive) and 33.3 µM (inactive) | > 100 µM (inactive) and 95.1 µM (inactive)
26 | C=C1C(=O)OC2C1C(OC(=O)/C(=C/C)COC(C)=O)CC1(CO1)C1C(OC(=O)/C(=C/C)CO)C=C(C)C21 (configuration not stated) | 1.85 µM (inactive) | 1.73 µM (inactive) | 1.34 µM (inactive) | 2.52 µM (inactive) | 0.427 µM (active) | 1.79 µM (inactive) | 1.65 µM (inactive) | 1.45 µM (inactive) | 
27 | Cc1ccc(S(=O)(=O)c2ccc(C)cc2[N+](=O)[O-])cc1 | 22.4 µM (inactive) | > 100 µM (inactive) | > 100 µM (inactive) | > 100 µM (inactive) | 44.3 µM (inactive) | 47.1 µM (inactive) | 64.4 µM (inactive) |  | 
28 | COC(=O)C1C=CCON2CCc3c(n(S(=O)(=O)c4ccccc4)c4ccccc34)C12 (configuration not stated) | 41.2 µM (inactive) | 48.8 µM (inactive) | 64.6 µM (inactive) | 42.1 µM (inactive) | 73.8 µM (inactive) | 40.6 µM (inactive) | > 100 µM (inactive) |  | 
29 | Cc1c2cc[n+](C)cc2c(C)c2c1[nH]c1ccc(O)c(OCC(F)(F)F)c12 | 0.938 µM (active) | 1.58 µM (inactive) |  | 7.13 µM (inactive) | 0.807 µM (active) | 2.42 µM (inactive) | 1.16 µM (inactive) | 1.2 µM (inactive) | 2.78 µM (inactive)
30 | CC[C@@]1(O)C(=O)OCc2c1cc1n(c2=O)Cc2cc3ccccc3nc2-1 [CAMPTOTHECIN] | 0.0206 µM (active) | < 0.01 µM (active) | 0.122 µM (active) | 0.0776 µM (active) | 0.372 µM (active) | 0.048 µM (active) | 0.333 µM (active) | 0.0483 µM (active) | 

Source: ChEMBL document CHEMBL1201862, “PubChem BioAssay data set” (2004)
